Activity calls are given as the source filed them. No cut-off for these calls is given here.
Assays:
[1] = tested on: Radical scavenging activity; test: Antioxidant activity assessed as DPPH radical scavenging activity at 100 ug after 10 mins by UV-Visible spectrophotometry; type: functional
[2] = tested on: Pseudomonas aeruginosa; test: Antibacterial activity against Pseudomonas aeruginosa ATCC 27853 at 0.5 to 1 mg/ml at 37 degC after 18 hrs by well plate method; type: functional, organism-based
[3] = tested on: Escherichia coli; test: Antibacterial activity against Escherichia coli ATCC 25922 at 0.5 to 1 mg/ml at 37 degC after 18 hrs by well plate method; type: functional, organism-based
[4] = tested on: Staphylococcus aureus; test: Antibacterial activity against Staphylococcus aureus ATCC 25923 at 0.5 to 1 mg/ml at 37 degC after 18 hrs by well plate method; type: functional, organism-based
[5] = Antifungal activity against Chrysosporium keratinophilum at 0.5 to 1 mg/ml at 25 degC after 3 days by well plate method; type: functional
[6] = tested on: Aspergillus flavus; test: Antifungal activity against Aspergillus flavus at 0.5 to 1 mg/ml at 25 degC after 3 days by well plate method; type: functional, organism-based

CC(=O)N1N=C(c2ccc(C)nc2)OC1c1ccc(Cl)cc1 (stereo unspecified)
Activity [1]: 49.2% | Activity [2]: Active | Activity [3]: Active | Activity [4]: Active

CC(=O)N1N=C(c2ccc(C)nc2)OC1c1ccc(-c2ccccc2)cc1 (stereo unspecified)
Activity [1]: 15.6%

COc1ccc2cc(C3OC(c4ccc(C)nc4)=NN3C(C)=O)ccc2c1 (stereo unspecified)
Activity [1]: 27.5%

CC(=O)N1N=C(c2ccc(C)nc2)OC1c1ccc(Br)cc1 (stereo unspecified)
Activity [1]: 65.5% | Activity [5]: Active | Activity [6]: Active | Activity [2]: Active | Activity [3]: Active | Activity [4]: Active

CC(=O)N1N=C(c2ccc(C)nc2)OC1(C)c1ccc(-c2ccccc2)cc1 (stereo unspecified)
Activity [1]: 47.7%

CC(=O)N1N=C(c2ccc(C)nc2)OC1(C)c1cccc(Br)c1 (stereo unspecified)
Activity [1]: 32.9% | Activity [5]: Active | Activity [6]: Active | Activity [2]: Active | Activity [3]: Active | Activity [4]: Active

CC(=O)N1N=C(c2ccc(C)nc2)OC1c1ccc(Cl)cc1Cl (stereo unspecified)
Activity [1]: 62.3% | Activity [5]: Active | Activity [6]: Active | Activity [2]: Active | Activity [3]: Active | Activity [4]: Active

CC(=O)c1ccc(C2(C)OC(c3ccc(C)nc3)=NN2C(C)=O)cc1 (stereo unspecified)
Activity [1]: 42.3%

CC(=O)N1N=C(c2ccc(C)nc2)OC1(C)c1ccc([N+](=O)[O-])cc1 (stereo unspecified)
Activity [1]: 52.4% | Activity [2]: Active | Activity [3]: Active | Activity [4]: Active

CC(=O)N1N=C(c2ccc(C)nc2)OC1(C)c1sccc1Br (stereo unspecified)
Activity [1]: 44.2% | Activity [5]: Active | Activity [6]: Active | Activity [2]: Active | Activity [3]: Active | Activity [4]: Active

CC(=O)N1N=C(c2ccc(C)nc2)OC1c1cccc(Cl)c1F (stereo unspecified)
Activity [1]: 37.3% | Activity [5]: Active | Activity [6]: Active | Activity [2]: Active | Activity [3]: Active | Activity [4]: Active

CN[C@@H]1[C@H](O[C@H]2[C@H](O[C@H]3[C@H](O)[C@@H](O)[C@H](N=C(N)N)[C@@H](O)[C@@H]3N=C(N)N)O[C@@H](C)[C@]2(O)C=O)O[C@@H](CO)[C@H](O)[C@H]1O
Activity [2]: Active | Activity [3]: Active | Activity [4]: Active

OC(Cn1cncn1)(Cn1cncn1)c1ccc(F)cc1F
Activity [5]: Active | Activity [6]: Active

CC(=O)N1N=C(c2ccc(C)nc2)OC1c1ccc(O)c(O)c1 (stereo unspecified)
Activity [1]: 13.3%

Cc1cc(C(C)(C)C)c(O)c(C(C)(C)C)c1
Activity [1]: 92.4%

COc1ccc(C2OC(c3ccc(C)nc3)=NN2C(C)=O)c(OC)c1 (stereo unspecified)
Activity [1]: 24.3%

CC(=O)N1N=C(c2ccc(C)nc2)OC1c1cccs1 (stereo unspecified)
Activity [1]: 12%
